Results: ChEMBL document CHEMBL4808220, “Discovery of novel pyrazolopyrimidine derivatives as potent mTOR/HDAC bi-functional inhibitors via pharmacophore-merging strategy” (Bioorg Med Chem Lett, 2021)
Active and inactive are the calls of the source. No cut-off for these calls is given here.

Legend:
[1] = molecular target: Histone deacetylase 1 (Homo sapiens, UniProt Q13547); experiment: Inhibition of HDAC1 (unknown origin)
[2] = molecular target: T1, Serine/threonine-protein kinase mTOR (Homo sapiens, UniProt P42345); experiment: Inhibition of mTOR (unknown origin)
[3] = molecular target: T2, Histone deacetylase (Homo sapiens) (UniProt Q13547+O15379+Q9UBN7+Q92769+Q9UQL6+Q8WUI4+Q9BY41+Q96DB2+P56524+Q9UKV0+Q969S8); experiment: Inhibition of HDAC in human MV4-11 cells assessed as increase in acetylation of alpha-tubulin at Lys40 residue by Western blot analysis relative to control; assay type: cell-based
[4] = molecular target: T2, Histone deacetylase (Homo sapiens); experiment: Inhibition of HDAC in human MV4-11 cells assessed as increase in acetylation of histone H3 (ac-H3 K9) by Western blot analysis relative to control; assay type: cell-based
[5] = molecular target: T3, Protein deacetylase HDAC6 (Homo sapiens, UniProt Q9UBN7); experiment: Inhibition of HDAC6 (unknown origin)
T3 sequence (Q9UBN7 whole entry): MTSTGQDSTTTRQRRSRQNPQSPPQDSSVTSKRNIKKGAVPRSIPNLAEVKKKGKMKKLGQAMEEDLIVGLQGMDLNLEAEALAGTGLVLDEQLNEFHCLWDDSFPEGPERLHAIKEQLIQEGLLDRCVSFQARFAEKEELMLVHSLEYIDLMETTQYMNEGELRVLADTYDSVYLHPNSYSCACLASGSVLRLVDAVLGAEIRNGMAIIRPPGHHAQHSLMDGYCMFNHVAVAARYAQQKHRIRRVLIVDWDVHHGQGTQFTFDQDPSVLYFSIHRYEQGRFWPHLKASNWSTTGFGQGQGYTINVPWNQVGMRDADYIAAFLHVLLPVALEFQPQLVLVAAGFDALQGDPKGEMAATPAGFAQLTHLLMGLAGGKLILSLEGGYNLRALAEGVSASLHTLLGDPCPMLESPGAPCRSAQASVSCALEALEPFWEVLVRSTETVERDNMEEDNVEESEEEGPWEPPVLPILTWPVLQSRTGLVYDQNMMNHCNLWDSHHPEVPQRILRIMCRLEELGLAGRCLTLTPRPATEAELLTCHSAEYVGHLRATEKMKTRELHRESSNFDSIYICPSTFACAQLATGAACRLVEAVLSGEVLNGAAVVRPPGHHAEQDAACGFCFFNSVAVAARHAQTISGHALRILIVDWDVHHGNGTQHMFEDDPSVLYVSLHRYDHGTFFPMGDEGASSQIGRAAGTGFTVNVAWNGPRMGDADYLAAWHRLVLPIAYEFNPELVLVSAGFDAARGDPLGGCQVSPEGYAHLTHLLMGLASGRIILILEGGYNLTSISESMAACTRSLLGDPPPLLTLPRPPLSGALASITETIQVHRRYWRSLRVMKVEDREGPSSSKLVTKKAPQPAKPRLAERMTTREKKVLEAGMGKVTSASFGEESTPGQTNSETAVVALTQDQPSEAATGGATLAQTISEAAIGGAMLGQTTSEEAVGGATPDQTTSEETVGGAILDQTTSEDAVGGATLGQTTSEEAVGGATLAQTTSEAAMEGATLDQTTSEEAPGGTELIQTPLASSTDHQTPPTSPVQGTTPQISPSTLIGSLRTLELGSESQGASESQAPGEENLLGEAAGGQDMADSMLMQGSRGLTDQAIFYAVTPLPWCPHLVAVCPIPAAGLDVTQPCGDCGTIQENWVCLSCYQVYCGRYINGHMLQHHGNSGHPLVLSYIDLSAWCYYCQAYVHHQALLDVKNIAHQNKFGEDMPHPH

[6] = molecular target: T4, Histone deacetylase 11 (Homo sapiens, UniProt Q96DB2); experiment: Inhibition of HDAC11 (unknown origin)
T4 sequence (Q96DB2 whole entry): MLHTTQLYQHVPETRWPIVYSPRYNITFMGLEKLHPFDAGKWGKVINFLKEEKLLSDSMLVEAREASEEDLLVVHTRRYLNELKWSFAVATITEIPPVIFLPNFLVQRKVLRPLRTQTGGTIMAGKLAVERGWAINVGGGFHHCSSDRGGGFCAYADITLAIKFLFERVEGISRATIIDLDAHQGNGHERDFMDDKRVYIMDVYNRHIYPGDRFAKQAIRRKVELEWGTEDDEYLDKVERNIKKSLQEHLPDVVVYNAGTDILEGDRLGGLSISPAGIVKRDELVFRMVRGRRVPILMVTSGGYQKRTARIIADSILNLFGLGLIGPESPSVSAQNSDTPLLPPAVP

[7] = system: MV4-11; experiment: Antiproliferative activity against human MV4-11 cells harboring FLT3-ITD mutant assessed as reduction in cell viability; assay type: functional, cell-based
[8] = system: A549; experiment: Antiproliferative activity against human A549 cells assessed as reduction in cell viability; assay type: functional, cell-based
[9] = molecular target: T5, Histone deacetylase 8 (Homo sapiens, UniProt Q9BY41); experiment: Inhibition of HDAC8 (unknown origin)
T5 sequence (Q9BY41 whole entry): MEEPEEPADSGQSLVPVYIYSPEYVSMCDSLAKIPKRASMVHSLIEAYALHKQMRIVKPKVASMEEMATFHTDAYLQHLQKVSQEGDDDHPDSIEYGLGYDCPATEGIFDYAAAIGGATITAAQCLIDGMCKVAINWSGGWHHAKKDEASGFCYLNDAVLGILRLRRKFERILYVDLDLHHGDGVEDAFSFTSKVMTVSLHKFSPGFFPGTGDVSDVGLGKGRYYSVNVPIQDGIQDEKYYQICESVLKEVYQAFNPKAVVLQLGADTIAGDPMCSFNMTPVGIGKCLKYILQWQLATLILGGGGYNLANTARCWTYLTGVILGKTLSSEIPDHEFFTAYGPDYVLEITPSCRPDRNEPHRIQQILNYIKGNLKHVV

[10] = molecular target: T1, Serine/threonine-protein kinase mTOR; experiment: Inhibition of mTOR complexes in human MV4-11 cells assessed as reduction in p-AKT(Ser473) protein level at 300 nM by Western blot analysis relative to control; assay type: cell-based
[11] = molecular target: T1, Serine/threonine-protein kinase mTOR; experiment: Inhibition of mTOR complexes in human MV4-11 cells assessed as suppression of phosphorylation of S6 ribosomal at Ser235/236 residues at 300 nM by Western blot analysis relative to control; assay type: cell-based
[12] = system: HCT-116; experiment: Antiproliferative activity against human HCT-116 cells assessed as reduction in cell viability; assay type: functional, cell-based

Histone deacetylase 1, sequence (Q13547 whole entry): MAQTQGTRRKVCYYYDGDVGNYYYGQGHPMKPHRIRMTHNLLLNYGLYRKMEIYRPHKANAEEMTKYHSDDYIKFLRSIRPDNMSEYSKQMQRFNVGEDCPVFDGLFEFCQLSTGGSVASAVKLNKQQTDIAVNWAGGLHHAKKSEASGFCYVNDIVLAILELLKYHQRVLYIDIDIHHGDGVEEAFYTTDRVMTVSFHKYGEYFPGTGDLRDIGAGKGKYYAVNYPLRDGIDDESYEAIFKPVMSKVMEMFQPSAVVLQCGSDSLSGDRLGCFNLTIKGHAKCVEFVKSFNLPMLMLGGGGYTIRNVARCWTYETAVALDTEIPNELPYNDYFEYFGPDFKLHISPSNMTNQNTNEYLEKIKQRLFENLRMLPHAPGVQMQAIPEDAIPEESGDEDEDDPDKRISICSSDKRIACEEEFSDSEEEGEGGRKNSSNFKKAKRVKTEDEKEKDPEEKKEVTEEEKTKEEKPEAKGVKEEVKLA

`Nc1ncc(-c2nn(CCCCCCC(=O)NO)c3ncnc(N)c23)cn1` was tested, and the IC50 [1] was 11 nM and the IC50 [2] was over 1000 nM.

`Nc1nc2cc(-c3nn(Cc4ccc(C(=O)NO)o4)c4ncnc(N)c34)ccc2o1` gave an IC50 [1] of over 1000 nM and an IC50 [2] of 18 nM.

With `Nc1nc2cc(-c3nn(CC4CCN(c5ncc(C(=O)NO)cn5)CC4)c4ncnc(N)c34)ccc2o1` the inhibition [3] was “Dose-Dependent Effect”, the IC50 [1] was 0.91 nM and the inhibition [4] was “Dose-Dependent Effect”. For the same compound, the IC50 [5] was 86 nM, the IC50 [6] was over 1000 nM and the IC50 [7] was 1740 nM. The IC50 [8] was 2160 nM, the IC50 [9] was 27 nM and the inhibition [10] was “Active”. For the same compound, the inhibition [11] was “Active”, the IC50 [12] was 3850 nM and the IC50 [2] was 0.49 nM.

`Nc1nc2cc(-c3nn(Cc4ccc(C(=O)NO)cc4)c4ncnc(N)c34)ccc2o1` showed an IC50 [1] of 5 nM and an IC50 [2] of 18 nM.

In the case of `Nc1nc2cc(-c3nn(CCCCC(=O)NO)c4ncnc(N)c34)ccc2o1`, the IC50 [1] is reported as 83 nM and the IC50 [2] is reported as 3.76 nM.

For `Nc1nc2cc(-c3nn(CC4CCN(C(=O)c5ccc(C(=O)NO)s5)CC4)c4ncnc(N)c34)ccc2o1`, the IC50 [1] was 5.9 nM, the IC50 [7] was 5210 nM and the IC50 [8] was 5900 nM. It also gave an IC50 [12] of over 10000 nM and an IC50 [2] of 0.4 nM.

`Nc1ncnc2c1c(-c1cnc3ccccc3c1)nn2CCCCC(=O)NO` gave an IC50 [1] of 65 nM and an IC50 [2] of 677 nM.

With `Nc1nc2cc(-c3nn(Cc4ccc(C(=O)NO)s4)c4ncnc(N)c34)ccc2o1` the IC50 [1] was 12 nM and the IC50 [2] was 27 nM.

`Nc1ncnc2c1c(-c1cnc3ccccc3c1)nn2CCCCCCC(=O)NO` showed an IC50 [1] of 4.1 nM and an IC50 [2] of 619 nM.

`Nc1ncc(-c2nn(CCCCC(=O)NO)c3ncnc(N)c23)cn1` was tested, and the IC50 [1] was 479 nM and the IC50 [2] was over 1000 nM.

`Nc1ccc(-c2nn(CCCCCCC(=O)NO)c3ncnc(N)c23)cn1` gave an IC50 [1] of 7.3 nM and an IC50 [2] of 151 nM.

`Nc1nc2cc(-c3nn(CC4CCN(C(=O)c5ccc(C(=O)NO)cc5)CC4)c4ncnc(N)c34)ccc2o1` gave an IC50 [1] of 12 nM and an IC50 [2] of 0.84 nM.

With `Nc1nc2cc(-c3nn(CCCCCCC(=O)NO)c4ncnc(N)c34)ccc2o1` the IC50 [1] was 0.78 nM, the IC50 [5] was 1.5 nM and the IC50 [6] was over 1000 nM. The IC50 [7] was 4130 nM, the IC50 [8] was 2860 nM and the IC50 [9] was 21 nM. It also gave an IC50 [12] of 3780 nM and an IC50 [2] of 1.7 nM.

`Nc1nc2cc(-c3nn(Cc4ccc(C(=O)NO)cn4)c4ncnc(N)c34)ccc2o1` showed an IC50 [1] of 11 nM and an IC50 [2] of 25 nM.

For `Nc1nc2cc(-c3nn(CC4CCN(C(=O)CCCCC(=O)NO)CC4)c4ncnc(N)c34)ccc2o1`, the IC50 [1] was 65 nM and the IC50 [2] was 1.9 nM.

`Nc1ccc(-c2nn(CCCCC(=O)NO)c3ncnc(N)c23)cn1` showed an IC50 [1] of over 1000 nM and an IC50 [2] of over 1000 nM.
